Key:
[1] = Pilot study: adverse events and safety observations in study subjects; format: in vivo, human
[2] = Pilot study: sex hormone profile in men after oral daily Kneller's Trione; format: in vivo, human; conditions: for ending testosterone-to-estradiol ratio: day 14, ratio to 1; for change of testosterone-to-estradiol ratio: starting vs ending (14 days); for ESTRADIOL / BIOAVAILABLE TESTOSTERONE / DHT / TOTAL TESTOSTERONE: person
Experimental: The first study subject was a person who was dosed once per day orally with 25 mg per day of Kneller's Trione.
The second study subject was a person who was dosed once per day orally with 50 mg per day of Kneller's Trione.
The third study subject was a person who was dosed once per day orally with 100 mg per day of Kneller's Trione.

[3] = 25 mg daily oral, 14 days vs baseline
[4] = 50 mg daily oral, 14 days vs baseline
[5] = 100 mg daily oral, 14 days vs baseline

In the case of `C[C@]12CCC(=O)C[C@@H]1C(=O)C[C@@H]1[C@@H]2CC[C@]2(C)C(=O)CC[C@@H]12` [Kneller's Trione, 5α-androstane-3,6,17-trione], the adverse event ([1]; 750 mg per day oral, subject withdrew from the pilot study) is reported as “occurrence of a priaprism”, the “liver function, kidney function, blood lipid levels, blood pressure, heart rate, respirations, body temperature” value ([1]; every subject, frequent intervals, oral daily dosages 25 mg to 750 mg) is reported as “within medically established normal ranges and values” and the “other adverse events noted by any study subject” value ([1]; oral daily dosages 25 mg to 750 mg) is reported as “No other adverse events were noted”. For the same molecule, the “increase in plasma bioavailable testosterone” value [2, 3] was 20%, the “increase in plasma total testosterone” value [2, 3] was 13% and the “reduction in plasma estradiol” value [2, 3] was 51%. For the same molecule, the ending testosterone-to-estradiol ratio ([2]; 25 mg daily oral, starting ratio 133.83 to 1) was 308.26, the “change of testosterone-to-estradiol ratio” value ([2]; 25 mg daily oral) was 130% and the “change in plasma estradiol” value [2, 4] was “no change”. For the same molecule, the “increase in plasma bioavailable testosterone” value [2, 4] was 21%, the “increase in plasma total testosterone” value [2, 4] was 28% and the ending testosterone-to-estradiol ratio ([2]; 50 mg daily oral, starting ratio 238.06 to 1) was 305.56. The “change of testosterone-to-estradiol ratio” value ([2]; 50 mg daily oral) was 28%, the “increase in plasma bioavailable testosterone” value [2, 5] was 146% and the “increase in plasma total testosterone” value [2, 5] was 93%. For the same molecule, the “reduction in plasma estradiol” value [2, 5] was 26%, the ending testosterone-to-estradiol ratio ([2]; 100 mg daily oral, starting ratio 102.17 to 1) was 266.18 and the “change of testosterone-to-estradiol ratio” value ([2]; 100 mg daily oral) was 161%. The “added benefit over a dose of 100 mg per day” value ([2]; 250 mg per day oral) was “did not seem to offer any added benefit”, the “total testosterone and bioavailable testosterone levels” value ([2]; 250 mg per day oral) was “raised total testosterone and bioavailable testosterone levels substantially and safely” and the “added benefit over a dose of 100 mg per day” value ([2]; 500 mg per day oral) was “did not seem to offer any added benefit”. For the same molecule, the “total testosterone and bioavailable testosterone levels” value ([2]; 500 mg per day oral) was “raised total testosterone and bioavailable testosterone levels substantially and safely”, the “added benefits of high dosage” value ([2]; 750 mg per day oral) was “no added benefits were seen” and the “plasma testosterone levels in men” value ([2]; general statement, dose not stated) was “substantial and significant increases”. The “plasma estradiol levels in men” value ([2]; general statement, relative to accepted normal limits) was “no changes outside the accepted normal limits”, the “increase of plasma free testosterone levels” value ([2]; oral administration, dose not stated) was “more than 100%” and the ESTRADIOL ([2]; 25 mg per day oral single dose, DAY 7, baseline 47 pg/mL) was 28 pg/mL. For the same molecule, the “BIOAVAILABLE TESTOSTERONE” value ([2]; 25 mg per day oral single dose, DAY 7, baseline 843 pg/mL) was 966 pg/mL, the DHT ([2]; 25 mg per day oral single dose, DAY 7, baseline 42 ng/dL) was 36 ng/dL and the “TOTAL TESTOSTERONE” value ([2]; 25 mg per day oral single dose, DAY 7, baseline (day 0) 6,290 pg/mL) was 6,400 pg/mL. The ESTRADIOL ([2]; 25 mg per day oral single dose, DAY 14, baseline 47 pg/mL) was 23 pg/mL, the “BIOAVAILABLE TESTOSTERONE” value ([2]; 25 mg per day oral single dose, DAY 14, baseline 843 pg/mL) was 1,014 pg/mL and the DHT ([2]; 25 mg per day oral single dose, DAY 14, baseline 42 ng/dL) was 49 ng/dL. For the same molecule, the “TOTAL TESTOSTERONE” value ([2]; 25 mg per day oral single dose, DAY 14, baseline (day 0) 6,290 pg/mL) was 7,090 pg/mL, the ESTRADIOL ([2]; 50 mg per day oral single dose, DAY 7, baseline 36 pg/mL) was 35 pg/mL and the “BIOAVAILABLE TESTOSTERONE” value ([2]; 50 mg per day oral single dose, DAY 7, baseline 169.7 pg/mL) was 209 pg/mL. For the same molecule, the DHT ([2]; 50 mg per day oral single dose, DAY 7, baseline 47 ng/dL) was 46 ng/dL, the “TOTAL TESTOSTERONE” value ([2]; 50 mg per day oral single dose, DAY 7, baseline (day 0) 8,570 pg/mL) was 11,000 pg/mL and the ESTRADIOL ([2]; 50 mg per day oral single dose, DAY 14, baseline 36 pg/mL) was 36 pg/mL. The “BIOAVAILABLE TESTOSTERONE” value ([2]; 50 mg per day oral single dose, DAY 14, baseline 169.7 pg/mL) was 209 pg/mL, the DHT ([2]; 50 mg per day oral single dose, DAY 14, baseline 47 ng/dL) was 49 ng/dL and the “TOTAL TESTOSTERONE” value ([2]; 50 mg per day oral single dose, DAY 14, baseline (day 0) 8,570 pg/mL) was 11,000 pg/mL. For the same molecule, the ESTRADIOL ([2]; 100 mg per day oral single dose, DAY 7, baseline 46 pg/mL) was 44 pg/mL, the “BIOAVAILABLE TESTOSTERONE” value ([2]; 100 mg per day oral single dose, DAY 7, baseline 794 pg/mL) was 1,432 pg/mL and the DHT ([2]; 100 mg per day oral single dose, DAY 7, baseline 35 ng/dL) was 48 ng/dL. The “TOTAL TESTOSTERONE” value ([2]; 100 mg per day oral single dose, DAY 7, baseline (day 0) 4,700 pg/mL) was 7,910 pg/mL, the ESTRADIOL ([2]; 100 mg per day oral single dose, DAY 14, baseline 46 pg/mL) was 34 pg/mL and the “BIOAVAILABLE TESTOSTERONE” value ([2]; 100 mg per day oral single dose, DAY 14, baseline 794 pg/mL) was 1,957 pg/mL. The DHT ([2]; 100 mg per day oral single dose, DAY 14, baseline 35 ng/dL) was 41 ng/dL and the “TOTAL TESTOSTERONE” value ([2]; 100 mg per day oral single dose, DAY 14, baseline (day 0) 4,700 pg/mL) was 9,050 pg/mL.

Source: patent publication US20090306031A1, “5alpha-ANDROSTANE-3,6,17-TRIONE (KNELLER'S TRIONE) AND METHODS OF USE THEREFOR” (priority 2009, published 2009)
